Measured values as given in ChEMBL document CHEMBL5678818, “Discovery of potent SOS1 inhibitors that block RAS activation via disruption of the RAS-SOS1 interaction” (Proc Natl Acad Sci U S A, 2019).

Assays:
[1] = target: Transient receptor potential cation channel subfamily M member 6 (Homo sapiens) (UniProt Q9BX84); test: Inhibition of TRPM6 (unknown origin) assessed as residual activity at 100 nM by KINOMEscan analysis relative to control
[2] = target: T1, Serine/threonine-protein kinase tousled-like 1 (Homo sapiens) (UniProt Q9UKI8); test: Inhibition of TLK1 (unknown origin) assessed as residual activity at 100 nM by KINOMEscan analysis relative to control
T1 sequence (whole entry): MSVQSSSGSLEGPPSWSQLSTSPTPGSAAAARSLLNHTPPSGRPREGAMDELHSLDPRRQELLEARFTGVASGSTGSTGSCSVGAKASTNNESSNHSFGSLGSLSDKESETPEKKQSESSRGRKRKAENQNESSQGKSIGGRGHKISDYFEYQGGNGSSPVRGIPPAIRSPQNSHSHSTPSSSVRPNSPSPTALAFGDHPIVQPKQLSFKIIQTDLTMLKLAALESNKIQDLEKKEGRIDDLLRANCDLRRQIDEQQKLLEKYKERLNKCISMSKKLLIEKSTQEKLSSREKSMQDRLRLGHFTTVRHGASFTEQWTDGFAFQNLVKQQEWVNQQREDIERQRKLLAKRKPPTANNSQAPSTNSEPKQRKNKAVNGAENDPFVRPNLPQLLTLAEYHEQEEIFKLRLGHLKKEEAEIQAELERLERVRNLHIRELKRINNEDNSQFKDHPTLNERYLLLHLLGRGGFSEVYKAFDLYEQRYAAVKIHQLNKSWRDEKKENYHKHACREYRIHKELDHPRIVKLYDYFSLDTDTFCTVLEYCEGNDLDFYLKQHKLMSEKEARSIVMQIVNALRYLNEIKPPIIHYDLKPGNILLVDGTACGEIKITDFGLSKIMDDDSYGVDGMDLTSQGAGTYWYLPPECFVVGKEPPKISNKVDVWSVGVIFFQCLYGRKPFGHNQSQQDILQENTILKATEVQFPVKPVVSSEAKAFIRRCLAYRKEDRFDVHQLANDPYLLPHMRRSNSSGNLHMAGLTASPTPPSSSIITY

[3] = target: Maternal embryonic leucine zipper kinase (Homo sapiens) (UniProt Q14680); test: Inhibition of MELK (unknown origin) assessed as residual activity at 100 nM by KINOMEscan analysis relative to control
Sequence of Maternal embryonic leucine zipper kinase (Homo sapiens) (Q14680 whole entry, looked up): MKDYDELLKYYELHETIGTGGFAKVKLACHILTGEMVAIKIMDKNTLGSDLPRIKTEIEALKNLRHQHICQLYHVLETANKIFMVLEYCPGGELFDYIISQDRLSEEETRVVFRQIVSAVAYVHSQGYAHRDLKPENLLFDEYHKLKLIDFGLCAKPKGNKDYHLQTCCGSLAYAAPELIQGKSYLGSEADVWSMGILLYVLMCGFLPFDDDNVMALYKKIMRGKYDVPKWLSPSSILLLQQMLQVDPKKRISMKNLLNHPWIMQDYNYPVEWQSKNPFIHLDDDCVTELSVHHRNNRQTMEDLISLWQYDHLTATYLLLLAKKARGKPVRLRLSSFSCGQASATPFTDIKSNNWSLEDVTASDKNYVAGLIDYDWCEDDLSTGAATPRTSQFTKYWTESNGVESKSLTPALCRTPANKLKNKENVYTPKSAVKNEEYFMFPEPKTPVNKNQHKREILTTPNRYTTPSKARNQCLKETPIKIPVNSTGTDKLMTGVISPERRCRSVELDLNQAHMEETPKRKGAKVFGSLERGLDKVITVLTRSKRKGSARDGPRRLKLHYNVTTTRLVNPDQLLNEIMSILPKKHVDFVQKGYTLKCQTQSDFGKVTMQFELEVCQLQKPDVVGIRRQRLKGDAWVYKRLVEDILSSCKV

[4] = target: Serine/threonine-protein kinase 35 (Homo sapiens) (UniProt Q8TDR2); test: Inhibition of STK35 (unknown origin) assessed as residual activity at 100 nM by KINOMEscan analysis relative to control
Sequence of Serine/threonine-protein kinase 35 (Homo sapiens) (Q8TDR2 whole entry, the tested form may be a part): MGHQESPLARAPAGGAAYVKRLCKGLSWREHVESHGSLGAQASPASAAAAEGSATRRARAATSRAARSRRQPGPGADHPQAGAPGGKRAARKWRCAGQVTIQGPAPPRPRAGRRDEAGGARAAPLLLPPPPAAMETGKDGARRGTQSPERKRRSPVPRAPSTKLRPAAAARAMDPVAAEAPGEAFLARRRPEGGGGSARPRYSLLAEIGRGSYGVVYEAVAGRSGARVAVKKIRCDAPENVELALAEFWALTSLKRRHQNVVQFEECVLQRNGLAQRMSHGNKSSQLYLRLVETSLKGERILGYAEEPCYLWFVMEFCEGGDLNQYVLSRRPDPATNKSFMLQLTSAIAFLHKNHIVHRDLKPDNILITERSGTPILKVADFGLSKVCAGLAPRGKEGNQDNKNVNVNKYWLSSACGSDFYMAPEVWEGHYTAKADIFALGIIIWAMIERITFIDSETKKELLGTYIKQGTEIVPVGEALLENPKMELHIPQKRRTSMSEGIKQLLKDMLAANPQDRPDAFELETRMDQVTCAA

[5] = target: Phosphatidylinositol 4-phosphate 3-kinase C2 domain-containing subunit beta (Homo sapiens) (UniProt O00750); test: Inhibition of PIK3C2B (unknown origin) assessed as residual activity at 100 nM by KINOMEscan analysis relative to control
[6] = target: Serine/threonine-protein kinase mTOR (Homo sapiens) (UniProt P42345); test: Inhibition of MTOR (unknown origin) assessed as residual activity at 100 nM by KINOMEscan analysis relative to control
[7] = target: Tyrosine-protein kinase JAK1 (Homo sapiens) (UniProt P23458); test: Inhibition of JAK1 JH1 catalytic domain (unknown origin) assessed as residual activity at 100 nM by KINOMEscan analysis relative to control
Sequence of Tyrosine-protein kinase JAK1 (Homo sapiens) (P23458 whole entry, the tested form may be a part, canonical isoform): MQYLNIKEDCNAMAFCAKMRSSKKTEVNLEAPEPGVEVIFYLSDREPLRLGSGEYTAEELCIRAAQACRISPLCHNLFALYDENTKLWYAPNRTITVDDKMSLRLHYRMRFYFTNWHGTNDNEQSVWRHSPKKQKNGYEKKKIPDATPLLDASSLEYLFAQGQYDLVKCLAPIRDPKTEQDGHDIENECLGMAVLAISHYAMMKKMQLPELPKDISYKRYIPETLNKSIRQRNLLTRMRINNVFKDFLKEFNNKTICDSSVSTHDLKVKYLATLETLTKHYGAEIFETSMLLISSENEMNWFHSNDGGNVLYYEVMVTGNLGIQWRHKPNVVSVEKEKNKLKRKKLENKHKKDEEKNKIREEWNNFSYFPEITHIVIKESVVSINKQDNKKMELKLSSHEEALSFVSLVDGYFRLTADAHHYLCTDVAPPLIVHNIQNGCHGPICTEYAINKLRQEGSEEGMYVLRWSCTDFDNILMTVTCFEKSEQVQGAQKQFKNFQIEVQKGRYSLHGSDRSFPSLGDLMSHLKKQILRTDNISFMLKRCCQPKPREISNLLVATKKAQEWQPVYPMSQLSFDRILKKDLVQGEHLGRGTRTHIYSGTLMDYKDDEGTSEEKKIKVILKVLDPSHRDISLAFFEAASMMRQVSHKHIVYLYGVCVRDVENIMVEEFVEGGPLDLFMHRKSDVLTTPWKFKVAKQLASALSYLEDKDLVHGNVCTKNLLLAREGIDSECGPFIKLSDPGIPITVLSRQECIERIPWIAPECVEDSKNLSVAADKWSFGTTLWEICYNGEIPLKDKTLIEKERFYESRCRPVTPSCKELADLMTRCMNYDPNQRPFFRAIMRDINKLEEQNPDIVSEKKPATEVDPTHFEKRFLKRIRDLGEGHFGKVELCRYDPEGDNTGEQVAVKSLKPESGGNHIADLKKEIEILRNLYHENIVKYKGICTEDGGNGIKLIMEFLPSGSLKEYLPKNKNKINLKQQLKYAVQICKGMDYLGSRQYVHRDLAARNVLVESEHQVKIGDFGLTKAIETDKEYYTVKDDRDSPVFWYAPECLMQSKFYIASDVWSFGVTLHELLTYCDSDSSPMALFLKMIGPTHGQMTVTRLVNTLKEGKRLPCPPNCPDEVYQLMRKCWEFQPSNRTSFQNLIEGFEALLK

[8] = target: Casein kinase I isoform alpha (Homo sapiens) (UniProt P48729); test: Inhibition of CSNK1A1 (unknown origin) assessed as residual activity at 100 nM by KINOMEscan analysis relative to control
[9] = target: Platelet-derived growth factor receptor beta (Homo sapiens) (UniProt P09619); test: Inhibition of PDGFRB (unknown origin) assessed as residual activity at 100 nM by KINOMEscan analysis relative to control
Sequence of Platelet-derived growth factor receptor beta (Homo sapiens) (P09619 whole entry): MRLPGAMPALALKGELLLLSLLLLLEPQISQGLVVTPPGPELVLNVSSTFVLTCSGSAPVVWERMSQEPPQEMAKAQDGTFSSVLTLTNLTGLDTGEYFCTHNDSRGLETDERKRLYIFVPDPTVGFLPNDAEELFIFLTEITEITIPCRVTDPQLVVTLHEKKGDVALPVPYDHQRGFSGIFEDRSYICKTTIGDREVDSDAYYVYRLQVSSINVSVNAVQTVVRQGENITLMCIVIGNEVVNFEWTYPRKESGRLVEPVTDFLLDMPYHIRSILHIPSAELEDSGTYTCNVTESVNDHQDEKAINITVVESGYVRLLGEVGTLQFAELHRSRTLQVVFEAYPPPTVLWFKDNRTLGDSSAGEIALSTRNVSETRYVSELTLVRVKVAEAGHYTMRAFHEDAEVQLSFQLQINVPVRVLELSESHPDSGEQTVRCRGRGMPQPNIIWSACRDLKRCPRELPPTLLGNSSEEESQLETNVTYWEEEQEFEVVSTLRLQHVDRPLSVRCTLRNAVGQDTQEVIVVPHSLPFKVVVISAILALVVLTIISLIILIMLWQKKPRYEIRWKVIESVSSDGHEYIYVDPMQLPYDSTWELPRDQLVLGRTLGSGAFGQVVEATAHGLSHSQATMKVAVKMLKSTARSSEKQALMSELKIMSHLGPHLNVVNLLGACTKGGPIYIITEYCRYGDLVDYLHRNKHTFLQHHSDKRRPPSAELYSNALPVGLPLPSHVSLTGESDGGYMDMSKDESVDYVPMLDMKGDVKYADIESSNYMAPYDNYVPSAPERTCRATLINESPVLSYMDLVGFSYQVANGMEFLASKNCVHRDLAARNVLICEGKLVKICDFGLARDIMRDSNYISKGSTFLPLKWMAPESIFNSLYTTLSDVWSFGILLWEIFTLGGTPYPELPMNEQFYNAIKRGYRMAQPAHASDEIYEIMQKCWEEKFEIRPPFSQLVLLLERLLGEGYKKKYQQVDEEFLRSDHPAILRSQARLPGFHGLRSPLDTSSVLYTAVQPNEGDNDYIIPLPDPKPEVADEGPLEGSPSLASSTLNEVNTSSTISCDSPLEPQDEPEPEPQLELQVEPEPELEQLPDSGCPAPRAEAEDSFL

[10] = target: T2, Serine/threonine-protein kinase haspin (Homo sapiens) (UniProt Q8TF76); test: Inhibition of HASPIN (unknown origin) assessed as residual activity at 100 nM by KINOMEscan analysis relative to control
T2 sequence (whole entry): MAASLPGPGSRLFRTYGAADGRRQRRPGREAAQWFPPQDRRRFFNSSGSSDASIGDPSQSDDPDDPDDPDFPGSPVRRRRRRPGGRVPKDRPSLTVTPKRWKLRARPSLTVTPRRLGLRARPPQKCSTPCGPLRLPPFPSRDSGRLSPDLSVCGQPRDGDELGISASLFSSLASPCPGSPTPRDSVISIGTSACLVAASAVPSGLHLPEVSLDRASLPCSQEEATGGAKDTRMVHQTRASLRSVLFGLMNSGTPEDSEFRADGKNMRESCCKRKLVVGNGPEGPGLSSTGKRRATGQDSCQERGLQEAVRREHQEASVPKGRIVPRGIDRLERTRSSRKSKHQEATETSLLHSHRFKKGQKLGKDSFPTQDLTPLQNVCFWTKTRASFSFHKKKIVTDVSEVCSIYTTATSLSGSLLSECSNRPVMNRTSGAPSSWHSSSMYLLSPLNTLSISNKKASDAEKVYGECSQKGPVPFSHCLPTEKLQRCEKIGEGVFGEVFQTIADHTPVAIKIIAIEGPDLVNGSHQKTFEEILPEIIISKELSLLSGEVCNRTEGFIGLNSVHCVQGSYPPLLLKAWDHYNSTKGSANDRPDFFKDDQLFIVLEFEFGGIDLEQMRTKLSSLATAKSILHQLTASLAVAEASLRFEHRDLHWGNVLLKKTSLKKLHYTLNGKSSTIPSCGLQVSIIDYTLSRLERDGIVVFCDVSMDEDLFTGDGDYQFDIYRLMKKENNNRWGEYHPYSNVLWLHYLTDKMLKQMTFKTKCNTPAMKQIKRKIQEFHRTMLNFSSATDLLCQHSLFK

[11] = target: Non-receptor tyrosine-protein kinase TYK2 (Homo sapiens) (UniProt P29597); test: Inhibition of TYK2 JH1 catalytic domain (unknown origin) assessed as residual activity at 100 nM by KINOMEscan analysis relative to control
Sequence of Non-receptor tyrosine-protein kinase TYK2 (Homo sapiens) (P29597 whole entry, the tested form may be a part): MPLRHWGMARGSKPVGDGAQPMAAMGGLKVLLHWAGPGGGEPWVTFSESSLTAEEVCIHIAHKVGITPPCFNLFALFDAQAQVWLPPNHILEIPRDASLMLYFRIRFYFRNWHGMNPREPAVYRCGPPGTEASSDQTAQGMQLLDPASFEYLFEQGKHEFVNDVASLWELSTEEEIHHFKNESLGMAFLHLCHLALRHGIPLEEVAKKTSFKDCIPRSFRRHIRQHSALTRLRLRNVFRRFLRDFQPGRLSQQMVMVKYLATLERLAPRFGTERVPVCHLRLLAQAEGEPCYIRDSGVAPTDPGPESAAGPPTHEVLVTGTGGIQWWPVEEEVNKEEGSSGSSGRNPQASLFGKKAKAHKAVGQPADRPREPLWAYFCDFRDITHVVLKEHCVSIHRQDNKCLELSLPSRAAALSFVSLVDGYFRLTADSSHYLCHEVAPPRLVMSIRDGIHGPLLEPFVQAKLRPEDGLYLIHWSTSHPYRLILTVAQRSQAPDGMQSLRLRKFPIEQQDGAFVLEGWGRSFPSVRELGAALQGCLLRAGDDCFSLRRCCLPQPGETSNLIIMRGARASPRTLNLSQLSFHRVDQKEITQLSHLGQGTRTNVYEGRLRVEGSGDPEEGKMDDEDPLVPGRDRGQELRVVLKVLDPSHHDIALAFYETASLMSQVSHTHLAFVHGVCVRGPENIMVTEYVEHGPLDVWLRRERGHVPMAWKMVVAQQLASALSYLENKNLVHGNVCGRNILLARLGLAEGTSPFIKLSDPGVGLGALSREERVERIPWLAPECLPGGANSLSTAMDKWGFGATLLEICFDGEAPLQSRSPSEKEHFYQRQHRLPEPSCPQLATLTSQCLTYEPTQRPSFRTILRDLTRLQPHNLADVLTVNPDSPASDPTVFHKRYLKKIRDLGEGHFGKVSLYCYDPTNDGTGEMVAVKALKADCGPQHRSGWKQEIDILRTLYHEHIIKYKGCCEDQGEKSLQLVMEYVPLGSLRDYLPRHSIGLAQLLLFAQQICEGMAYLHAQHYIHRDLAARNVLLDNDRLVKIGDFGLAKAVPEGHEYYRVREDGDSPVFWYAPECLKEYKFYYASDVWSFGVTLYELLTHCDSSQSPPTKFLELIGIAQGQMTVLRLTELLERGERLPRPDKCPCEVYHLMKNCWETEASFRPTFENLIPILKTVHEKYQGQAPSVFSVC

[12] = target: Cyclin-dependent kinase 4 (Homo sapiens) (UniProt P11802); test: Inhibition of CDK4 (unknown origin) assessed as residual activity at 1000 nM by KINOMEscan analysis relative to control
Sequence of Cyclin-dependent kinase 4 (Homo sapiens) (P11802 whole entry): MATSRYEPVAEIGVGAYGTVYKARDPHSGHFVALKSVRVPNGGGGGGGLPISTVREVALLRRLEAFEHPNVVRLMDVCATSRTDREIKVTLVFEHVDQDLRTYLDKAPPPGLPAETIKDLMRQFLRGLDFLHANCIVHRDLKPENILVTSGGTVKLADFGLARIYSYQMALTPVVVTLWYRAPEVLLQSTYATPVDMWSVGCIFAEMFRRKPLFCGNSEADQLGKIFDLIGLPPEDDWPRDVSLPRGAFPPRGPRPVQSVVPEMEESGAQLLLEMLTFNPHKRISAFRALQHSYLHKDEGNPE

| Structure (SMILES) | Activity [1] [%] | Activity [2] [%] | Activity [3] [%] | Activity [4] [%] | Activity [5] [%] | Activity [6] [%] | Activity [7] [%] | Activity [8] [%] | Activity [9] [%] | Activity [10] [%] | Activity [11] [%] | Activity [12] [%] |
| --- | --- | --- | --- | --- | --- | --- | --- | --- | --- | --- | --- | --- |
| COc1cc2ncnc(N[C@H](C)c3cccc4ccccc34)c2cc1OC | 84 | 79 | 73 | 98 | 81 | 82 | 79 | 93 | 100 | 95 | 94 | – |
| COc1cc2nc(C)nc(N[C@H](C)c3cccc(-c4cn[nH]c4)c3)c2cc1OC | – | – | – | – | – | – | – | – | – | – | – | 92 |
